{"source": "patent US7767648B2", "about": "“Tissue specific prodrugs” (priority 2000, dated 2010)", "key": {"[1]": {"tested_on": "TSU prostate cancer cell line", "test": "Killing of non-PSMA producing TSU prostate cancer cell line", "assay_type": "cell-based, human", "protocol": "The prodrugs are hydrolyzed by PSMA and release the corresponding Asp- or Glu-containing TG analogs or the TG analog itself, and also lack potent cytotoxicity when not metabolized by PSMA. Non-PSMA producing TSU-Pr1 human prostate cancer cell line is exposed to each of the prodrugs at doses that are approximately 50-times the LD50 for the corresponding free TG analog. Against the TSU prostate cancer cell line, 12ADT-Glu has an LD50 value for killing of ˜50 nM."}, "PSMA": {"molecular_target": "PSMA (Homo sapiens, UniProt Q04609)", "sequence (Q04609 whole entry)": "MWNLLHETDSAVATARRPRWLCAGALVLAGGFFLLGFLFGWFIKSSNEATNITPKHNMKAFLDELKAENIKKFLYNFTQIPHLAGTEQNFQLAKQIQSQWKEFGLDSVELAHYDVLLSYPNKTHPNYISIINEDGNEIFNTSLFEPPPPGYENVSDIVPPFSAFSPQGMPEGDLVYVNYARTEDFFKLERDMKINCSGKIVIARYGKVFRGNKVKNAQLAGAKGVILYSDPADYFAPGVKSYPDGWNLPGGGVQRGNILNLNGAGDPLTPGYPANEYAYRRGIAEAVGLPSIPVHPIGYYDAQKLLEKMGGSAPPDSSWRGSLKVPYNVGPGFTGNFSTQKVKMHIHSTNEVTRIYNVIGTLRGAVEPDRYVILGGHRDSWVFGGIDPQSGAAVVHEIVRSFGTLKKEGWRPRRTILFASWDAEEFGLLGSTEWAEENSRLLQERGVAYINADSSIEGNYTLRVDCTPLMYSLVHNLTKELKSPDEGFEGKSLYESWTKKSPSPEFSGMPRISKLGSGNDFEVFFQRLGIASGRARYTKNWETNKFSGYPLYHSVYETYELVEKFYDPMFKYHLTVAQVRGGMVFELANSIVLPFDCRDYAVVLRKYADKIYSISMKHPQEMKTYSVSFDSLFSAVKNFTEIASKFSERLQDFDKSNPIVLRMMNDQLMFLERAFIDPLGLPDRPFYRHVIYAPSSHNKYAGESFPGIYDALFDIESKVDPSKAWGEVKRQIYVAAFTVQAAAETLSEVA", "test": "Hydrolysis of methotrexate analog substrates by purified PSMA (HPLC)", "assay_type": "biochemical", "protocol": "The extent to which various peptide substrates are hydrolyzed by PSMA was determined by synthesizing a series of methotrexate analogs including the 4-N[N-2,4-diamino-6-pteridinyl-methyl)-N-methylamino-benzoate] (APA) portion of methotrexate coupled to a variety of peptides. Poly-glutamated methotrexate is available from Schirks Laboratories in Jona, Switzerland.\nA series of α-linked peptides were investigated for PSMA hydrolysis. […] In Tables 1-3, to simplify identification of the type of amino acid linkages employed, α-linkages are denoted by a hyphen (for example, Glu-Glu) and all side-chain linkages are denoted by a star (for example, Glu*Glu).\nSubstrate specificity for the pteroyl poly-γ-glutamyl carboxypeptidase (folate hydrolase) activity of PSMA was determined by synthesizing a series of γ-linked methotrexate analogs and assaying them for hydrolysis by PSMA.\n(§1) In Tables 1-3, to simplify identification of the type of amino acid linkages employed, α-linkages are denoted by a hyphen (for example, Glu-Glu) and all side-chain linkages are denoted by a star (for example, Glu*Glu). The column labeled “% PSMA Hydrolysis” refers to the percentage of hydrolysis of a substrate to APA-Asp or to APS-Glu by purified PSMA. The column labeled “% APA-Asp or -Glu” refers to the percentage of hydrolysis of substrate to APA-Asp or APA-Glu. The column labeled “% Prodrug Remaining” refers to the area of the HPLC peak attributable to starting material divided by the areas of HPLC peaks attributable to starting material, intermediate products, and final products. […] “ND” means “not determined,” in that the experiment was not performed."}, "[2]": {"test": "Stability of PSMA substrates in mouse plasma, 18 hour incubation, HPLC", "assay_type": "in vitro ADME", "settings": "18 hour incubation in mouse plasma", "excerpt": "(§2) In order that the prodrugs can be administered systemically via the blood, their stability in sera must be sufficiently high to avoid hydrolysis or other degradative processes which may occur prior to the prodrugs reaching their target tissues. In addition to GGH activity, a human blood plasma glutamate carboxypeptidase (PGCP) that has significant sequence homology to PSMA and glutamate carboxypeptidase activity has been identified. Therefore, to assay hydrolysis by GGH and other serum carboxypeptidases like PGCP, the APA-Glu*Glu*Glu*Glu*Asp, APA-Glu*Glu*Glu*Glu*Gln, and APA-Glu*Glu*Glu*Glu*Glu substrates were incubated in human and mouse plasma and hydrolysis determined by HPLC analysis after an 18-hour incubation, as shown in Table 3. As noted, GGH efficiently hydrolyzes poly-γ-glutamate chains as well as poly-γ-glutamated folate and methotrexate. GGH, however, is unable to hydrolyze α-linked peptides.\nas §1"}, "[3]": {"test": "Stability of PSMA substrates in human plasma, 18 hour incubation, HPLC", "assay_type": "in vitro ADME", "settings": "18 hour incubation in human plasma", "excerpt": "as §2, §1"}, "TSU cancer cell line": {"tested_on": "TSU cancer cell line", "test": "Inhibition of clonogenic survival of TSU cells in presence or absence of exogenous PSMA", "assay_type": "cell-based", "settings": "exogenous PSMA 10 micrograms/mL, FIG. 4", "protocol": "FIG. 4 is a graph of the percentage inhibition of clonogenic survival of TSU cells exposed to various concentrations of APA-Glu*Glu*Glu*Glu*Asp in the presence or absence of PSMA.\nThe methotrexate analog sequence APA-Glu*Glu*Glu*Glu*Asp was contacted with the non-PSMA producing TSU cancer cell line in various amounts. Exogenous PSMA (10 micrograms/mL) was added to the media and the percent inhibition of clonogenic survival was monitored."}}, "data": [{"molecule": "8-O-(12-[L-glutamylamino]-dodecanoyl)-8-O-debutanoylthapsigargin [12ADT-Glu]", "values": [{"measurement": "LD50 value for killing", "setting": "[1]", "result": "approximately 50 nM"}]}, {"molecule": "CN(Cc1cnc2nc(N)nc(N)c2n1)c1ccc(C(=O)N[C@@H](CCC(=O)N[C@@H](CCC(=O)N[C@@H](CCC(=O)N[C@@H](CCC(=O)N[C@@H](CC(=O)O)C(=O)O)C(=O)O)C(=O)O)C(=O)O)C(=O)O)cc1", "note": "[APA-Glu*Glu*Glu*Glu*Asp]", "values": [{"measurement": "% hydrolysis after 24 hours", "setting": "PSMA; Table 2, γ-linked analogs, incubated with PSMA 24 hours", "result": 40.9, "unit": "%"}, {"measurement": "% hydrolysis after 48 hours", "setting": "PSMA; Table 2, γ-linked analogs, incubated with PSMA 48 hours", "result": 77.7, "unit": "%"}, {"measurement": "% PSMA hydrolysis 24 h", "setting": "PSMA; Table 3, hydrolysis of substrate to APA-Asp or APA-Glu by purified PSMA, 24 h", "result": 98, "unit": "%"}, {"measurement": "% PSMA hydrolysis 48 h", "setting": "PSMA; Table 3, hydrolysis of substrate to APA-Asp or APA-Glu by purified PSMA, 48 h", "result": 100, "unit": "%"}, {"measurement": "hydrolysis by PSMA (in words)", "setting": "PSMA; text summary of the tables", "result": "to a greater extent after 24 hours than any of the γ-linked dipeptide analogs"}, {"measurement": "% APA-Glu or -Asp", "setting": "[2]", "result": 72, "unit": "%"}, {"measurement": "remaining at 18 h", "setting": "[3]; HPLC peak area of starting material over all peaks, read-out: % Prodrug Remaining", "result": 20, "unit": "%"}, {"measurement": "% APA-Glu or -Asp", "setting": "[3]; hydrolysis of substrate to APA-Asp or APA-Glu", "result": 9, "unit": "%"}, {"measurement": "selectivity, percent inhibition of clonogenic survival with versus without PSMA", "setting": "TSU cancer cell line", "result": "there is selectivity"}]}]}
